Patent publication US8288371B2, “Ortho pyrrolidine, benzyl-substituted heterocycle CCR1 antagonists for autoimmune diseases and inflammation” (Pharmacopeia, LLC, priority 2007, dated 2012)

Target: T1, human CCR1 (Homo sapiens, UniProt P32246)
T1 sequence (P32246 1-355): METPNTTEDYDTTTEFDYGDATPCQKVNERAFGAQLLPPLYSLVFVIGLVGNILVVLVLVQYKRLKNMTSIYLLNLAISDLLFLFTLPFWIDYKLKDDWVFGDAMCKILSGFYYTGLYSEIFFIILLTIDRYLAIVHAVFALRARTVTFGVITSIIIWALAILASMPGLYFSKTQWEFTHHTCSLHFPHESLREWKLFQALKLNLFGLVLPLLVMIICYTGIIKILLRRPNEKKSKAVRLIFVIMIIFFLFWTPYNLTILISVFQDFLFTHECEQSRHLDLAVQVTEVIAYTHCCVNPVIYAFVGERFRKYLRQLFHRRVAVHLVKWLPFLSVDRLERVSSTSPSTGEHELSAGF
Experiment: CCR1 binding protocol (SPA, [125I]-MIP-1α displacement)
Conditions: cell membrane expressing human CCR1, 0.1 nM [125I]-MIP-1α, 4 hours at ambient temperature; read-out: Relative potency (IC50)
Procedure, shortened: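 Human CCR1 membranes (0.5 μg/well) on SPA beads were incubated with compound and 0.1 nM [125I]-MIP-1α (final) for 4 h at ambient temperature. Buffer was Tris pH 7.4 with NaCl, KCl, MnCl and 0.1% BSA. IC50 came from ½-log compound dilutions (10 mM top DMSO stock) by displacement of bound radioligand.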

Row | SMILES | IC50 [nM]
1 | Cc1cc(C)c(C(=O)O)cc1NC(=O)N1CCC[C@@H]1c1nnc(C)n1Cc1ccc(Cl)cc1 [Compound 346] | 50 to 500
2 | O=C(Nc1ccc(Cl)cc1F)N1CCC[C@@H]1c1nnsc1Cc1ccc(Cl)cc1 [Compound 628] | 50 to 500
3 | Cc1nnc([C@H]2CCCN2C(=O)Nc2ccc(S(N)(=O)=O)cc2Cl)n1Cc1ccc(Cl)cc1 [Compound 486] | < 50
4 | Cc1ccncc1NC(=O)N1CCC[C@@H]1c1nnc(C)n1Cc1ccc(Cl)cc1 [Compound 225] | 50 to 500
5 | CNS(=O)(=O)c1ccc(NC(=O)N2CCC[C@@H]2c2nnc(C)n2Cc2ccc(Cl)cc2)c(Cl)c1 [Compound 452] | < 50
6 | O=C(N[C@H]1CCOc2c(F)cccc21)N1CCC[C@@H]1c1ncncc1Cc1ccc(Cl)cc1 [Compound 22] | 50 to 500
7 | CNC(=O)c1ccc(C(F)(F)F)c(NC(=O)N2CCC[C@@H]2c2nnc(C)n2Cc2ccc(Cl)cc2)c1 [Compound 359] | < 50
8 | O=C(NC1CCCOc2ccccc21)N1CCC[C@@H]1c1nccn1Cc1ccc(Cl)cc1 (stereo partly drawn) [Compound 32] | < 50
9 | Cc1nnc([C@H]2CCCN2C(=O)Nc2ccc(Cl)c(C#N)c2)n1Cc1ccc(Cl)cc1 [Compound 487] | < 50
10 | Cc1nnc([C@H]2CCCN2C(=O)NC2(c3ccccc3)CC2)n1Cc1ccc(Cl)cc1 [Compound 204] | < 50
11 | Cc1nnc([C@H]2CCCN2C(=O)Nc2ccc(Cl)nc2Cl)n1Cc1ccc(Cl)cc1 [Compound 395] | < 50
12 | Cc1cnc([C@H]2CCCN2C(=O)Nc2ccc(Cl)cc2F)n1Cc1ccc(Cl)cc1 [Compound 567] | 50 to 500
13 | Cc1ccc(S(C)(=O)=O)c(C)c1NC(=O)N1CCC[C@@H]1c1nnc(C)n1Cc1ccc(Cl)cc1 [Compound 406] | < 50
14 | CCC(CC)NC(=O)N1CCC[C@@H]1c1nnc(C)n1Cc1ccc(Cl)cc1 [Compound 183] | 50 to 500
15 | CC(=O)O[C@@H]1C[C@H](c2ncnn2Cc2ccc(Cl)cc2)N(C(=O)Nc2ccc(Cl)cc2F)C1 [Compound 485] | 500 to 5000
16 | O=C(N[C@H]1CCCc2ccccc21)N1CCC[C@@H]1c1nccn1Cc1ccc(Cl)cc1 [Compound 29] | < 50
17 | Cc1nc(C(F)(F)F)ccc1NC(=O)N1CCC[C@@H]1c1nnc(C)n1Cc1ccc(F)cc1 [Compound 531] | 50 to 500
18 | Cc1noc(C)c1NC(=O)N1CCC[C@@H]1c1nnc(CO)n1Cc1ccc(Cl)cc1 [Compound 323] | 50 to 500
19 | O=C(N[C@H]1CCc2ccccc2C1)N1CCC[C@@H]1c1ncnn1Cc1ccc(Cl)cc1 [Compound 56] | < 50
20 | Cc1nnc([C@H]2CCCN2C(=O)Nc2ccc(Cl)cc2F)n1Cc1ccc(Cl)c(Cl)c1 [Compound 384] | 50 to 500
21 | Cc1nnc([C@H]2CCCN2C(=O)N[C@@H]2c3ccccc3C[C@H]2O)n1Cc1ccc(Cl)cc1 [Compound 403] | 50 to 500
22 | O=C(NCc1ccc(Cl)cc1Cl)N1CCC[C@@H]1c1nnc(CO)n1Cc1ccc(Cl)cc1 [Compound 313] | < 50
23 | Cc1nnc([C@H]2CCCN2C(=O)NC2CCc3cc(Cl)ccc32)n1Cc1ccc(Cl)cc1 (stereo partly drawn) [Compound 132] | < 50

Row | SMILES | IC50 [nM]
24 | Cc1nnc([C@H]2CCCN2C(=O)Cc2ccc(Cl)cc2F)n1Cc1ccc(Cl)cc1 [Compound 507] | 50 to 500
25 | Cc1nnc([C@H]2CCCN2C(=O)N[C@H]2CCOc3cccc(F)c32)n1Cc1ccc(Cl)cc1 [Compound 164] | 50 to 500
26 | Cc1ccc2c(c1)CCCC2NC(=O)N1CCC[C@@H]1c1nnc(C)n1Cc1ccc(Cl)cc1 (stereo partly drawn) [Compound 269] | 50 to 500
27 | Cc1nnc([C@H]2CCCN2C(=O)N[C@H](C)c2ccccc2)n1Cc1ccc(Cl)cc1 [Compound 213] | < 50
28 | O=C(Nc1ccc(C(F)(F)F)cc1)N1CCC[C@@H]1c1ncnn1Cc1ccc(Cl)cc1 [Compound 64] | < 50
29 | Cc1nc(C(F)(F)F)ccc1CC(=O)N1CCC[C@@H]1c1ncnn1Cc1ccc(Cl)cc1 [Compound 617] | 50 to 500
30 | Cc1cccnc1NC(=O)N1CCC[C@@H]1c1nnc(C)n1Cc1ccc(Cl)cc1 [Compound 281] | < 50
31 | Cc1noc(C)c1NC(=O)N1C[C@@H](O)C[C@@H]1c1nnc(C)n1Cc1ccc(Cl)cc1 [Compound 445] | 50 to 500
32 | CC(=O)O[C@@H]1C[C@H](c2nnc(C)n2Cc2ccc(Cl)cc2)N(C(=O)Nc2ccc(C(F)(F)F)nc2Cl)C1 [Compound 496] | 50 to 500
33 | Cc1c(NC(=O)N2CCC[C@@H]2c2nnc(C)n2Cc2ccc(Cl)cc2)ccc(C#N)c1C(F)(F)F [Compound 527] | < 50
34 | Cc1nnc([C@H]2C[C@@H](O)CN2C(=O)Nc2ccc(Cl)cc2F)n1Cc1ccc(Cl)cc1 [Compound 390] | 500 to 5000
35 | Cc1nnc([C@H]2CCCN2C(=O)NC2(c3ccc(Cl)cc3)CC2)n1Cc1ccc(Cl)cc1 [Compound 271] | < 50
36 | CCc1nnc([C@H]2CCCN2C(=O)Nc2c(C)noc2C)n1Cc1ccc(Cl)cc1 [Compound 582] | 50 to 500
37 | Cc1nnc([C@H]2CCCN2/C(=N\C#N)N[C@@H](C)c2cc3ccccc3o2)n1Cc1ccc(Cl)cc1 [Compound 195] | < 50
38 | Cc1nnc([C@H]2CCCN2C(=O)Nc2ccc(C#N)nc2)n1Cc1ccc(Cl)cc1 [Compound 396] | 50 to 500
39 | N#C/N=C(\N[C@H]1CCOc2cc(C(F)(F)F)ccc21)N1CCC[C@@H]1c1nnc(CO)n1Cc1ccc(Cl)cc1 [Compound 373] | 50 to 500
40 | Cc1nc(C(F)(F)F)ccc1N/C(=N\O)N1CCC[C@@H]1c1nnc(C)n1Cc1ccc(Cl)cc1 [Compound 605] | 50 to 500
41 | Cc1cc(C(N)=O)ccc1NC(=O)N1CCC[C@@H]1c1nnc(C)n1Cc1ccc(Cl)cc1 [Compound 300] | 50 to 500
42 | Cc1cc(Cl)cc(C)c1NC(=O)N1CCC[C@@H]1c1nccn1Cc1ccc(Cl)cc1 [Compound 33] | < 50
43 | Cc1nnc([C@H]2CCCN2C(=O)NC(C)C)n1Cc1ccc(Cl)cc1 [Compound 252] | 500 to 5000
44 | O=C(NC1(c2ccccc2)CC1)N1CCC[C@@H]1c1ncnn1Cc1ccc(Cl)cc1 [Compound 100] | 500 to 5000
45 | Cc1nnc([C@H]2CCCN2C(=O)Nc2ccc(Cl)cc2F)n1Cc1ccc(Br)cc1 [Compound 534] | 50 to 500
46 | Cc1nnc([C@H]2CCCN2C(=O)Cc2ccc(Cl)cc2)n1Cc1ccc(Cl)cc1 [Compound 174] | 50 to 500

Row | SMILES | IC50 [nM]
47 | Cc1nnc([C@H]2CCCN2C(=O)Nc2nnc(C(F)(F)F)s2)n1Cc1ccc(Cl)cc1 [Compound 464] | 500 to 5000
48 | O=C(N[C@H]1CCOc2cc(C(F)(F)F)ccc21)N1CCC[C@@H]1c1ncnn1Cc1ccc(Cl)cc1 [Compound 57] | < 50
49 | Cc1nnc([C@H]2CCCN2C(=O)N[C@@H]2CCCOc3ccc(Cl)cc32)n1Cc1ccc(Cl)cc1 [Compound 147] | < 50
50 | Cc1noc(-c2ccccc2)c1NC(=O)N1CCC[C@@H]1c1nnc(CO)n1Cc1ccc(Cl)cc1 [Compound 309] | < 50
51 | O=C(Nc1ccc(C(F)(F)F)cc1)N1CCC[C@@H]1c1[nH]ncc1Cc1ccc(Cl)cc1 [Compound 10] | 500 to 5000
52 | Cc1ccc(Cn2ccnc2[C@H]2CCCN2C(=O)Nc2ccc(C(F)(F)F)cc2)cc1 [Compound 46] | 500 to 5000
53 | Cc1c(NC(=O)N2CCC[C@@H]2c2nnc(C)n2Cc2ccc(Cl)cc2)cccc1C(=O)O [Compound 242] | 50 to 500
54 | Cc1nnc([C@H]2CCCN2C(=O)Nc2cc(C(=O)O)ccc2C(F)(F)F)n1Cc1ccc(Cl)cc1 [Compound 335] | 500 to 5000
55 | Cc1nnc([C@H]2C[C@@H](O)CN2C(=O)Nc2ccc(Cl)nc2Cl)n1Cc1ccc(Cl)cc1 [Compound 498] | 50 to 500
56 | Cc1nnc([C@H]2CCCN2/C(=N/C#N)NCc2ccc(C(F)(F)F)cc2)n1Cc1ccc(Cl)cc1 [Compound 377] | 50 to 500
57 | Cc1noc(-c2ccccc2)c1NC(=O)N1CCC[C@@H]1c1nnnn1Cc1ccc(Cl)cc1 [Compound 51] | < 50
58 | O=C(NCc1ccc(C(F)(F)F)cc1)N1CCC[C@@H]1c1nnc(C(F)(F)F)n1Cc1ccc(Cl)cc1 [Compound 249] | 500 to 5000
59 | CC(=O)O[C@@H]1C[C@H](c2nnc(C)n2Cc2ccc(Cl)cc2)N(C(=O)Nc2ccc(Cl)nc2Cl)C1 [Compound 500] | 50 to 500
60 | Cc1nnc([C@H]2CCCN2C(=O)NC2CC(C)(C)Oc3cc(C(F)(F)F)ccc32)n1Cc1ccc(Cl)cc1 (stereo partly drawn) [Compound 272] | 50 to 500
61 | Cc1cc(C(=O)N(C)C)ccc1NC(=O)N1CCC[C@@H]1c1nnc(C)n1Cc1ccc(Cl)cc1 [Compound 236] | 50 to 500
62 | Cc1onc(-c2ccc(F)cc2)c1NC(=O)N1CCC[C@@H]1c1nnc(C)n1Cc1ccc(Cl)cc1 [Compound 297] | < 50
63 | Cc1nnc([C@H]2C[C@H](O)CN2C(=O)Nc2ccc(Cl)c(C(F)(F)F)c2)n1Cc1ccc(Cl)cc1 [Compound 437] | < 50
64 | CN1C(=O)COc2ccc(NC(=O)N3CCC[C@@H]3c3ncnn3Cc3ccc(Cl)cc3)cc21 [Compound 99] | 50 to 500
65 | Cc1nc(Cl)ncc1NC(=O)N1CCC[C@@H]1c1nnc(C)n1Cc1ccc(Cl)cc1 [Compound 350] | < 50
66 | Cc1nnc([C@H]2CCCN2C(=O)Nc2cc(F)c(Cl)cc2F)n1Cc1ccc(Cl)cc1 [Compound 427] | < 50
67 | Cc1nnc([C@H]2CCCN2C(=O)Nc2ccc3ccccc3c2)n1Cc1ccc(Cl)cc1 [Compound 135] | < 50
68 | Cc1cc(NC(=O)N2CCC[C@@H]2c2nnc(C)n2Cc2ccc(Cl)cc2)c(F)cc1Cl [Compound 426] | < 50
69 | O=C(NC1CCCOc2cc(Cl)ccc21)N1CCC[C@@H]1c1ncnn1Cc1ccc(Cl)cc1 (stereo partly drawn) [Compound 88] | 500 to 5000
